Like-named read-outs stand apart in the source and are kept apart here.
Columns and labels:
[1] = target: GDP-bound KRAS protein (aa 1-169), containing both G12C and C118A amino acid substitutions (Homo sapiens (Human), UniProt P01116, C118A/G12C); assay: Coupled Nucleotide Exchange Assay; type: biochemical; details: read-out: Coupled Exchange IC50 (2 h); 2 h compound pre-incubation
Protocol: (§1) For compounds in Table 9, the following assay conditions were employed:
Coupled Nucleotide Exchange Assay:
The assay plates were then read on a PerkinElmer EnVision Multilabel Reader, using AlphaScreen® technology, and data were analyzed using a 4-parameter logistic model to calculate IC50 values.

[2] = system: Phosphorylation of ERK1/2 in MIA PaCa-2 cells; assay: Phospho-ERK1/2 MSD Assay; type: cell-based; details: MiaPaCa-2 cells
Protocol: as §1
Phospho-ERK1/2 MSD Assay:
Sixteen hours prior to compound treatment, MIA PaCa-2 cells were seeded in 96-well cell culture plates at a density of 25,000 cells/well and incubated at 37° C., 5% CO2. […] Following compound treatment, cells were stimulated with 10 ng/mL EGF (Roche 11376454001) for 10 min, washed with ice-cold Dulbecco's phosphate-buffered saline, no Ca^2+ or Mg^2+ (ThermoFisher Scientific 14190144), and then lysed in RIPA buffer (50 mM Tris-HCl pH 7.5, 1% Igepal, 0.5% sodium deoxycholate, 150 mM NaCl, and 0.5% sodium dodecyl sulfate) containing protease inhibitors (Roche 4693132001) and phosphatase inhibitors (Roche 4906837001). […] Assay plates were read on a Meso Scale Discovery Sector Imager 6000, and data were analyzed using a 4-parameter logistic model to calculate IC50 values.

[3] = system: Phosphorylation of ERK1/2 in A549 cells; assay: Phospho-ERK1/2 MSD Assay (A549); type: cell-based
[4] = Homo sapiens, MIA PaCa-2, 4 h, read-out: pERK IC50 (4 h, MiaPaCa-2), 4 h compound treatment
[5] = Homo sapiens, A549, 4 h, read-out: pERK IC50 (4 h, A549), 4 h compound treatment
[6] = read-out: pERK IC50 (4 h, A549), 4 h compound treatment

Chain of GDP-bound KRAS protein (aa 1-169), containing both G12C and C118A amino acid substitutions (P01116 other isoform, or with tags, fused parts or gaps G12C/C118A): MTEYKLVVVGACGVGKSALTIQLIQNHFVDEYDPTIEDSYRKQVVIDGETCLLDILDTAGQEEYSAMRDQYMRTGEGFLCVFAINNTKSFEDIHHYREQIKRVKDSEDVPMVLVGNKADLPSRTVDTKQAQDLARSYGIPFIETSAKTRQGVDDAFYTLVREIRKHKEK

Compound | IC50 [2, 4] | IC50 [3, 5] | also measured
C=CC(=O)N1CC(N(C)C(=O)Cn2cc(C(=O)N3CCc4c(ccnc4OC)C3)c3c(Cl)c(Cl)ccc32)C1 [Example 7] | 1.33 µM |  | IC50 [1]: 0.45 µM
C=CC(=O)N1CC(NC(=O)Cn2c(C)c(C(=O)N3CCN(c4ccc(C#N)cn4)C[C@H]3C)c3cc(Br)ccc32)C1 [Example 16] | 1.79 µM | > 100 µM | 
C=CC(=O)N1CC(NC(=O)Cn2c(C3CC3)c(C(=O)N3CCC(C)(C)C3)c3cc(Cl)cc(C)c32)C1 [Example 20] | 1.94 µM | > 100 µM | 
C=CC(=O)N1CC(NC(=O)Cn2c(C)c(C(=O)N3CCN(c4ccc(C)cn4)CC3)c3cc(Cl)cc(C)c32)C1 [Example 24] |  | > 100 µM | 
C=CC(=O)N1CC(NC(=O)Cn2c(C)c(C(=O)N3C(C)COCC3C)c3cc(Br)cc(C)c32)C1 (stereo not drawn) [Example 26] | 2.48 µM | > 33.3 µM | 
C=CC(=O)N1CC(NC(=O)Cn2c(C)c(C(=O)N3CCN(c4ccc(C)cn4)CC3)c3cc(Br)ccc32)C1 [Example 29] | 2.66 µM | > 100 µM | 
C=CC(=O)N1CC(NC(=O)Cn2c(C3CC3)c(C(=O)N3CCOC(C)(c4ccccc4)C3)c3cc(Cl)cc(C)c32)C1 (stereo not drawn) [Example 31] | 2.7 µM | > 100 µM | 
C=CC(=O)N1CC(NC(=O)Cn2c(C)c(C(=O)N3CCN(c4ccc(Br)cn4)CC3)c3cc(Br)ccc32)C1 [Example 34] | 3.06 µM | > 100 µM | 
C=CC(=O)N1CC(NC(=O)Cn2cc(C(=O)NCCOc3c(C)cccc3C)c3cc(Cl)cc(Cl)c32)C1 [Example 37] | 3.33 µM | > 100 µM | 
C=CC(=O)N1CC(NC(=O)Cn2c(C)c(C(=O)N3CCN(c4ccc(C(F)(F)F)cn4)CC3)c3cc(Br)ccc32)C1 [Example 40] | 3.42 µM | 44.6 µM | 
C=CC(=O)N1CC(N2CCC(n3c(C)c(C(=O)N4CCc5c(cccc5OC)C4)c4cc(Br)ccc43)C2=O)C1 (stereo not drawn) [Example 42] | 3.78 µM | > 33.3 µM | 
C=CC(=O)N1CC(NC(=O)Cn2c(C)c(C(=O)N3CCc4c(cccc4OC)C3)c3cc(Br)ccc32)C1C (stereo not drawn) [Example 44] |  | > 100 µM | 
C=CC(=O)N1CC(NC(=O)Cn2cc(C(=O)N3CCN(c4ccc(C)cn4)CC3)c3cc(Br)ccc32)C1 [Example 45] | 3.96 µM | > 100 µM | 
C=CC(=O)N1CC(NC(=O)Cn2c(C)c(C(=O)N3CCN(c4ccc([N+](=O)[O-])cn4)CC3)c3cc(Br)ccc32)C1 [Example 46] | 4.08 µM | > 100 µM | 
C=CC(=O)N1CC(N(C)C(=O)Cn2c(C)c(C(=O)N3CCN(c4ccc(C)cn4)CC3)c3cc(Br)ccc32)C1 [Example 47] | 4.16 µM | > 100 µM | 
C=CC(=O)N1CC(NC(=O)Cn2cc(C(=O)N3CCN(c4cccc(C)n4)CC3)c3cc(Br)ccc32)C1 [Example 48] | 4.56 µM | > 33.3 µM | 
C=CC(=O)N1CC(N2CC[C@@H](n3c(C)c(C(=O)N4CCc5c(cccc5OC)C4)c4cc(Br)ccc43)C2=O)C1 [Example 50] | 4.81 µM | > 33.3 µM | 
C=CC(=O)N1CC(NC(=O)Cn2cc(C(=O)N3CCN(c4ccccn4)CC3)c3cc(Br)ccc32)C1 [Example 60] |  | > 100 µM | 
C=CC(=O)N1CC(NC(=O)Cn2cc(C(=O)N3CCN(c4ncccc4C)CC3)c3cc(Br)ccc32)C1 [Example 61] | 7.06 µM | > 33.3 µM | 
C=CC(=O)N1CC(NC(=O)Cn2c(C)c(C(=O)N3CCOC(C)(C)C3)c3cc(Br)ccc32)C1 [Example 64] | 7.74 µM | > 100 µM | 
C=CC(=O)N1CC(NC(=O)Cn2c(C)c(C(=O)C3CCc4ccccc4C3)c3cc(Br)ccc32)C1 (stereo not drawn) [Example 65] | 7.99 µM | 3.47 µM | 
C=CC(=O)N1CC(NC(=O)Cn2cc(C(=O)NCCOc3c(C)cccc3C)c3cc(Br)ccc32)C1 [Example 68] | 8.81 µM | > 100 µM | 
C=CC(=O)N1CC(N(CC)C(=O)Cn2c(C)c(C(=O)N3CCc4ccccc4C3C)c3cc(Br)cc(C)c32)C1 (stereo not drawn) [Example 72] | 10.6 µM | 63.4 µM | 
C=CC(=O)N1CC(C)(NC(=O)Cn2c(C)c(C(=O)N3CCc4c(cccc4OC)C3)c3cc(Br)ccc32)C1 [Example 77] | 11.6 µM | 10.2 µM | 
C=CC(=O)N1CC(NC(=O)Cn2cc(C(=O)N3CCN(c4cc(C)ccn4)CC3)c3cc(Br)ccc32)C1 [Example 79] | 11.8 µM | > 100 µM | 
C=CC(=O)N1CC(NC(=O)Cn2c(C)c(C(=O)N3CCN(c4ccc(C#N)cn4)C[C@@H]3C)c3cc(Br)ccc32)C1 [Example 81] | 12.5 µM | > 100 µM | 

Compound | IC50 [2, 4] | IC50 [3, 5] | also measured
C=CC(=O)N1CC(NC(=O)Cn2cc(C(=O)N3CCc4c(cccc4OC)C3)c3cc(Br)cc(C)c32)C1 [Example 82] |  | > 100 µM | 
C=CC(=O)N1CC(NC(=O)Cn2c(C)c(C(=O)N3CCN(c4ccc(C#N)cn4)CC3)c3cc(Br)ccc32)C1 [Example 83] | 13.6 µM | > 100 µM | 
C=CC(=O)N1CC(NC(=O)Cn2cc(C(=O)N3CCc4c(ccnc4OC)C3)c3cc(Br)ccc32)C1 [Example 89] | 14.9 µM | > 100 µM | 
C=CC(=O)N1CC(NC(=O)Cn2cc(C(=O)N3CCN(c4ccc(OC)cn4)CC3)c3cc(Br)ccc32)C1 [Example 93] | 16.5 µM | > 100 µM | 
C=CC(=O)N1CC(NC(=O)Cn2cc(C(=O)N3CCc4c(ccc(Cl)c4Cl)C3)c3cc(Br)ccc32)C1 [Example 96] | 17.4 µM | 30.5 µM | 
C=CC(=O)N1CC(NC(=O)Cn2cc(C(=O)N3CCN(c4ccc([N+](=O)[O-])cn4)CC3)c3cc(Br)ccc32)C1 [Example 99] | 18.9 µM | > 100 µM | 
C=CC(=O)N1CC(NC(=O)Cn2c3c(c4cc(Br)ccc42)CCN(C(=O)OC(C)(C)C)C3)C1 [Example 100] |  |  | IC50 ([3]; Homo sapiens, read-out: pERK IC50 (4 h), 4 h compound treatment): > 33.3 µM; IC50 ([2]; Homo sapiens, MIA PaCa-2, read-out: pERK IC50 (4 h), 4 h compound treatment): 19.4 µM
C=CC(=O)N1CC(NC(=O)Cn2cc(C(=O)N3CCO[C@H](c4ccccc4)C3)c3cc(Br)ccc32)C1 [Example 103] | 21.6 µM | > 100 µM | 
C=CC(=O)N1CC(NC(=O)Cn2cc(C(=O)N3CCc4cc(Br)ccc4C3)c3cc(Br)ccc32)C1 [Example 104] | 21.7 µM |  | IC50 [3, 6]: 14.6 µM
C=CC(=O)N1CC(NC(=O)Cn2cc(C(=O)N3CCc4cc(Br)ccc4C3)c3cc(Br)ccc32)C1 [Example 106] |  |  | IC50 [3, 6]: 44.7 µM; IC50 ([2]; read-out: pERK IC50 (4 h, MiaPaCa-2), 4 h compound treatment): 22.2 µM
C=CC(=O)N1CC(NC(=O)Cn2cc(C(=O)OC)c3cc(Br)ccc32)C1 [Example 108] | 23.5 µM | > 100 µM | 
C=CC(=O)N1CC(NC(=O)Cn2cc(C(=O)N3CCc4c(Cl)cccc4C3)c3cc(Br)ccc32)C1 [Example 109] |  | 21.3 µM | 
C=CC(=O)N1CC(NC(=O)Cn2cc(C(=O)N3CCc4cc(F)ccc4C3)c3cc(Br)ccc32)C1 [Example 114] |  | > 100 µM | 
C=CC(=O)N1CC(NC(=O)Cn2c(C)c(C(=O)N3CCc4ncccc4C3)c3cc(Br)ccc32)C1 [Example 116] | 28.5 µM | > 100 µM | 
C=CC(=O)N1CC(NC(=O)Cn2cc(C(=O)N3CCc4c(F)cccc4C3)c3cc(Br)ccc32)C1 [Example 118] |  | > 100 µM | 
C=CC(=O)N1CC(NC(=O)Cn2cc(C(=O)N3CCc4c(Br)cc(C)cc4C3)c3cc(Br)ccc32)C1 [Example 120] | 30.8 µM | 28.4 µM | 
C=CC(=O)N1CC(NC(=O)Cn2cc(C(=O)NCCc3nccs3)c3cc(Br)ccc32)C1 [Example 123] | 32.4 µM | > 100 µM | 
C=CC(=O)N1CC(NC(=O)Cn2cc(C(=O)N3CCc4cc(C(=O)OC)ccc4C3)c3cc(Br)ccc32)C1 [Example 124] | 32.9 µM | > 100 µM | 
C=CC(=O)N1CC(NC(=O)C(C)n2c(C)c(C(=O)N3CCc4c(cccc4OC)C3)c3cc(Cl)ccc32)C1 (stereo not drawn) [Example 126] | 33.9 µM | 48.4 µM | 
C=CC(=O)N1CC(NC(=O)Cn2cc(C(=O)NCC(c3sccc3C)N(C)C)c3cc(Br)ccc32)C1 (stereo not drawn) [Example 127] | 34.3 µM | > 100 µM | 
C=CC(=O)N1CC(NC(=O)Cn2cc(C(=O)N3CCc4ccccc4C3)c3cc(Br)ccc32)C1 [Example 129] |  | > 100 µM | 
C=CC(=O)N1CC(NC(=O)Cn2cc(C(=O)N3CCc4c(C#N)cccc4C3)c3cc(Br)ccc32)C1 [Example 134] | 38 µM | > 100 µM | 
C=CC(=O)N1CC(NC(=O)Cn2cc(C(=O)N3CCOC(c4ccccc4)C3)c3cc(Br)ccc32)C1 (stereo not drawn) [Example 138] | 40.5 µM | > 100 µM | 
C=CC(=O)N1CC(NC(=O)Cn2cc(C(=O)NCCc3ccccc3)c3cc(Br)ccc32)C1 [Example 140] |  | > 100 µM | 
C=CC(=O)N1CC(NC(=O)Cn2cc(C(=O)N(C)Cc3ccccc3)c3cc(Br)ccc32)C1 [Example 155] |  | > 100 µM | 
C=CC(=O)N1CC(NC(=O)Cn2cc(C(=O)NCc3ccccc3)c3cc(Br)ccc32)C1 [Example 163] |  | > 100 µM | 
